How the values were obtained:
[1] = test system: spindle assembly checkpoint; assay: SAC-Formation - Paclitaxel-Induced Assay; format: cell-based; details: Homo sapiens; HeLa cells, paclitaxel 0.05 μM, 24 h, phosphorylated histone H3 on serine 10
From the text: (§1) The spindle assembly checkpoint assures the proper segregation of chromosomes during mitosis. Upon entry into mitosis, chromosomes begin to condensate which is accompanied by the phosphorylation of histone H3 on serine 10. Dephosphorylation of histone H3 on serine 10 begins in anaphase and ends at early telophase. Accordingly, phosphorylation of histone H3 on serine 10 can be utilized as a marker of cells in mitosis. Nocodazole is a microtubule destabilizing substance. Paclitaxel is a microtubule stabilizing compound. Thus, nocodazole as well as paclitaxel interfere with microtubule dynamics and mobilize the spindle assembly checkpoint. […] The mitotic breakthrough can be detected by the decrease of cells with phosphorylation of histone H3 on serine 10. This decline is used as a marker to determine the capability of compounds of the present invention to induce a mitotic breakthrough. The typical morphological alteration of nuclei with a prematurely completed mitosis after SAC-inhibition can be monitored via image analysis routines supporting those findings.
(§2) The nocodazole and paclitaxel variations were used to focus on compounds that are capable of inhibiting a SAC induced by both microtubule destabilization as well as microtubule stabilization. When SAC inducing agents and compounds are given simultaneously, inhibitors that effectively block the SAC during formation or abrogation are identified. When cells are incubated with a SAC inducing agent and the SAC interfering compound is given after a defined time, inhibitors are identified that effectively block SAC abrogation.
(§3) Cultivated cells of the human cervical tumor cell line HeLa (ATCC CCL-2) were plated at a density of 1000 cells/well in a 1536-well microtiter plate in 2 μl PAA Ham's F12 Medium supplemented with 1% (v/v) glutamine, 1% (v/v) penicillin, 1% (v/v) streptomycin and 10% (v/v) fetal calf serum. After incubation overnight at 37° C., 10 μl/well paclitaxel at a final concentration of 0.05 μM were added to cells. Test compounds solubilized in dimethyl sulfoxide (DMSO) were added at various concentrations (0 μM, as well as in the range of 0.005 μM-20 μM; the final concentration of the solvent DMSO was 0.5% (v/v)). Cells were incubated for 24 h at 37° C. in the presence of test compounds in combination with paclitaxel. Thereafter, cells were fixed in 4% (v/v) paraformaldehyde in phosphate buffered saline (PBS) at 4° C. overnight then permeabilized in 0.1% (v/v) Triton X™ 100 in PBS at room temperature for 20 min and blocked in 0.5% (v/v) bovine serum albumin (BSA) in PBS at room temperature for 15 min. After washing with PBS, 5 μl/well antibody solution (anti-phospho-histone H3 clone 3H10, FITC; Millipore, Cat #16-222; 1:1000 dilution) was added to cells, which were incubated for 2 h at room temperature. Afterwards, cells were washed with PBS and 5 μl/well solution of HOECHST 33342 dye (5 μg/ml) was added to cells and cells were incubated 15 min at room temperature in the dark. Cells were washed twice with PBS then covered with PBS and stored at 4° C. until analysis. Images were acquired with a PERKIN ELMER OPERA™ High-Content Analysis reader. Images were analyzed with image analysis software MetaXpress™ from Molecular devices utilizing the Mitotic Index application module. In this assay both labels HOECHST 33342 and phosphorylated Histone H3 on serine 10 were measured. HOECHST 33342 labels the DNA and is used to count the cell number. The staining of phosphorylated Histone H3 on serine 10 determines the number of mitotic cells. […] Otherwise cells were arrested at G2/M phase of the cell cycle progression. The raw assay data were further analyzed by four-parametric hill equation using Genedata's Assay Analyzer and Condoseo software.

[2] = test system: spindle assembly checkpoint; assay: SAC-Formation - Nocodazole-Induced Assay; format: cell-based; details: Homo sapiens; HeLa cells, nocodazole 0.1 μg/ml, 24 h, phosphorylated histone H3 on serine 10
From the text: as §1, §2
as §3, with “nocodazole” for “paclitaxel”, “0.1 μg/ml” for “0.05 μM”, “nocodazole.” for “paclitaxel.”

Row | IC50 [1] [nM] | IC50 [2] [nM] | SMILES
1 | 750 | 130 | COc1ncc(NC(=O)c2c(C)nsc2Nc2cnc3ccccc3n2)cc1C [Example 121, N-(6-Methoxy-5-methylpyridin-3-yl)-3-methyl-5-(quinoxalin-2-ylamino)-1,2-thiazole-4-carboxamide]
2 | 140 | 51 | CCc1ccccc1NC(=O)c1c(C)nsc1Nc1cnc2ccccc2n1 [Example 19, N-(2-Ethylphenyl)-3-methyl-5-(quinoxalin-2-ylamino)-1,2-thiazole-4-carboxamide]
3 | 140 | 54 | COc1ccc(NC(=O)c2c(C)nsc2Nc2cnc3cc(C(F)(F)F)ccc3n2)cn1 [Example 45, N-(6-Methoxypyridin-3-yl)-3-methyl-5-{[6-(trifluoromethyl)quinoxalin-2-yl]amino}-1,2-thiazole-4-carboxamide]
4 | 8100 | 5900 | COC(=O)c1cnc(Nc2snc(C)c2C(=O)Nc2ccc(F)c(F)c2)o1 [Example 97, Methyl 2-({4-[(3,4-difluoro-phenyl)carbamoyl]-3-methyl-1,2-thiazol-5-yl}amino)-1,3-oxazole-5-carboxylate]
5 | 1600 | 950 | CCc1ccccc1NC(=O)c1c(C)nsc1Nc1nccnc1C#N [Example 34, 5-[(3-Cyanopyrazin-2-yl)amino]-N-(2-ethylphenyl)-3-methyl-1,2-thiazole-4-carboxamide]
6 | 3400 | 5500 | CCOC(=O)c1coc(Nc2snc(C)c2C(=O)Nc2ccc(OC)nc2)n1 [Example 100, Ethyl 2-({4-[(6-methoxypyridin-3-yl)carbamoyl]-3 methyl-1,2-thiazol-5-yl}amino)-1,3-oxazole-4-carboxylate]
7 | 30 | 19 | Cc1nsc(Nc2cc(C#N)ccn2)c1C(=O)Nc1ccc(Cl)c(F)c1 [Example 54, N-(4-Chloro-3-fluorophenyl)-5-[(4-cyanopyridin-2-yl)amino]-3-methyl-1,2-thiazole-4-carboxamide]
8 | 35 | 39 | Cc1nsc(Nc2nc3c(C(F)(F)F)cccc3s2)c1C(=O)Nc1ccc(F)c(F)c1 [Example 51, N-(3,4-Difluorophenyl)-3-methyl-5-{[4-(trifluoromethyl)-1,3-benzothiazol-2-yl]-amino}-1,2-thiazole-4-carboxamide]
9 | 19000 | 6000 | CCc1ccnc(Nc2snc(C)c2C(=O)Nc2ccccc2CC)n1 [Example 17, N-(2-Ethylphenyl)-5-[(4-ethylpyrimidin-2-yl)amino]-3-methyl-1,2-thiazole-4-carboxamide]
10 | 1900 | 1100 | Cc1nsc(Nc2cnc(C(=O)N(C)C)cn2)c1C(=O)Nc1ccc(F)c(F)c1 [Example 109, 5-({4-[(3,4-Difluorophenyl)carbamoyl]-3-methyl-1,2-thiazol-5-yl}amino)-N,N-dimethylpyrazine-2-carboxamide]
11 | 120 | 90 | Cc1nsc(Nc2cnc3ccccc3n2)c1C(=O)Nc1ccc(OC2CCCCC2)nc1 [Example 115, N-[6-(Cyclohexyloxy)pyridin-3-yl]-3-methyl-5-(quinoxalin-2-ylamino)-1,2-thiazole-4-carboxamide]
12 | 18000 | 4100 | CCc1ccccc1NC(=O)c1c(C)nsc1Nc1ncccc1C#N [Example 8, 5-[(3-Cyanopyridin-2-yl)amino]-N-(2-ethylphenyl)-3-methyl-1,2-thiazole-4-carboxamide]
13 | 760 | 350 | CCc1ccccc1NC(=O)c1c(C)nsc1Nc1nc2ccccc2s1 [Example 14, 5-(1,3-Benzothiazol-2-ylamino)-N-(2-ethylphenyl)-3-methyl-1,2-thiazole-4-carboxamide]
14 | 3600 | 280 | CCc1ccccc1NC(=O)c1c(C)nsc1Nc1nc2ccccc2nc1C [Example 21, N-(2-Ethylphenyl)-3-methyl-5-[(3-methylquinoxalin-2-yl)amino]-1,2-thiazole-4-carboxamide]
15 | 110 | 34 | COc1ccc(NC(=O)c2c(C)nsc2Nc2cnc3c(F)c(F)ccc3n2)cn1 [Example 43, 5-[(5,6-Difluoroquinoxalin-2-yl)amino]-N-(6-methoxypyridin-3-yl)-3-methyl-1,2-thiazole-4-carboxamide]
16 | 570 | 2400 | COc1ccc(NC(=O)c2c(C)nsc2Nc2cccc(C#N)n2)cn1 [Example 37, 5-[(6-Cyanopyridin-2-yl)amino]-N-(6-methoxypyridin-3-yl)-3-methyl-1,2-thiazole-4-carboxamide]
17 | 890 | 260 | COc1ccc(NC(=O)c2c(C)nsc2Nc2cnc3ccc(Cl)cc3n2)cn1 [Example 42, 5-[(7-Chloroquinoxalin-2-yl)amino]-N-(6-methoxypyridin-3-yl)-3-methyl-1,2-thiazole-4-carboxamide]
18 | 4600 | 260 | CCc1ccccc1NC(=O)c1c(C)nsc1Nc1nc(C)nc2ccccc12 [Example 35, N-(2-Ethylphenyl)-3-methyl-5-[(2-methylquinazolin-4-yl)amino]-1,2-thiazole-4-carboxamide]
19 | 57 | 18 | Cc1nsc(Nc2cnc3ccccc3n2)c1C(=O)Nc1ccc(Oc2ccccc2)nc1 [Example 112, 3-Methyl-N-(6-phenoxypyridin-3-yl)-5-(quinoxalin-2-ylamino)-1,2-thiazole-4-carboxamide]
20 | 1800 | 200 | Cc1nsc(Nc2cc(C#N)ccn2)c1C(=O)Nc1ccc(Oc2ccccc2)nc1 [Example 111, 5-[(4-Cyanopyridin-2-yl)amino]-3-methyl-N-(6-phenoxypyridin-3-yl)-1,2-thiazole-4-carboxamide]
21 | 1400 | 1200 | CCOC(=O)c1cnc(Nc2snc(C)c2C(=O)Nc2ccc(F)c(F)c2)o1 [Example 96, Ethyl 2-({4-[(3,4-difluorophenyl)carbamoyl]-3-methyl-1,2-thiazol-5-yl}amino)-1,3-oxazole-5-carboxylate]
22 | 250 | 67 | Cc1nsc(Nc2cnccn2)c1C(=O)Nc1ccc(Cl)c(F)c1 [Example 56, N-(4-Chloro-3-fluorophenyl)-3-methyl-5-(pyrazin-2-ylamino)-1,2-thiazole-4-carboxamide]

From patent publication US9682995B2, “Amino-substituted isothiazoles” (BAYER PHARMA AKTIENGESELLSCHAFT, priority 2013, dated 2017)
